Test results: PMC7062083, “Metabolite identification, tissue distribution, excretion and preclinical pharmacokinetic studies of ET-26-HCl, a new analogue of etomidate” (Royal Society Open Science, 2020)

Tests used:
[1] = Plasma protein binding, equilibrium dialysis, rat plasma; type: in vitro ADME
Procedure: (§1) The PPB of ET-26-HCl in mouse, rat, beagle dog, monkey and human plasma was determined according to the equilibrium dialysis method. In brief, 1 ml of control plasma samples in dialysis bag was incubated in 10 ml of PBS containing ET-26-HCl at a final concentration of 2.21 × 10^2, 1.77 × 10^3 and 3.54 × 10^3 […] at 4°C with an equilibrium time of 9 h to reach the mass balance binding condition. A 100 µl aliquots of the PBS buffer and the plasma in the dialysis bag were transferred to 2 ml EP tubes and diluted to 995 µl with PBS and analysed on the LC–MS/MS system. The PPB (fppb) was calculated as follows: fppb=Din−Dout/Din×100% , where Din is the plasma drug concentration in the dialysis bag and Dout is the dialysate drug concentration.

[2] = Plasma protein binding, equilibrium dialysis, beagle dog plasma; type: in vitro ADME
Procedure: as §1

[3] = Plasma protein binding, equilibrium dialysis, monkey plasma; type: in vitro ADME
Procedure: as §1

[4] = Pharmacokinetics in beagle dogs after intravenous administration; type: in vivo; details: beagle dogs; for λ: i.v.; for Vd / half-life / AUC0-t / Cmax / clearance: both sexes, dog, plasma, iv; for Vd / half-life: beagle
Procedure: (§2) Concentrations of ET-26-HCl and ET-26-acid in biological samples were determined by liquid chromatography–tandem mass spectrometry (LC–MS/MS) after deproteinization with methanol. The bioanalytical method for simultaneous quantification of ET-26-HCl and ET-26-acid in the different matrix was fully validated according to FDA guidelines (electronic supplementary material, figure S1 and tables S1 and S2) in our previous study. Briefly, a 100 µl sample (plasma, tissue homogenate, bile, urine and faeces suspension) were spiked with 20 µl of IS solution and vortexed for 30 s. The mixture was then processed for protein precipitation with 300 µl methanol, followed by centrifugation at 12 000 r.p.m. for 5 min. Supernatant was collected and analysed by LC–MS/MS system.
The LC–MS/MS was performed as described previously. Briefly, ET-26-HCl, ET-26-acid and GBP were separated using a CAPCELL PAK C18 column (50 × 2.00 mm, 5.00 µm) as well as a Security Guard Cartridge (C18, 4 mm × 3.00 mm i.d., Phenomenex). The mobile phase consisting of 0.3% formic acid water (A), and methanol (B) was pumped at a flow rate of 0.6 ml min^−1. The gradient elution was achieved according to the following protocol: 0 min to about 0.50 min, A/B (41/9, v/v); 0.51 min to about 1.5 min, A/B (1/9, v/v); and 1.51 min to about 2.00 min, A/B ([…], v/v). Mass spectrometry was conducted on an API 3000 mass spectrometer (Sciex, Framingham, MA, USA) equipped with an electrospray ionization (ESI) source operating in positive mode. The MS/MS system was in the multiple reaction monitoring (MRM) mode, using the m/z transitions of 275.6/170.9 for ET-26-HCl, 217.7/113.1 for ET-26-acid and 172.5/154.3 for GBP (IS), respectively. The API 3000 mass parameters were set according to the following protocol: curtain gas, 6 psi; collision gas, 8 psi; nebulizer, 4 psi; ion spray voltage, 3000 V and ion source temperature, 450°C. The autosampler was conditioned at 4°C, and the injection volume was 5 µl. The linear ranges of this analytical method for ET-26-HCl and for ET-26-acid from all biological samples are shown in electronic supplementary material, table S3.
Beagle dogs, weighing 9–11 kg, were purchased from Sichuan Industrial of Antibiotics, China National Pharmaceutical Group Corporation (Chengdu, China). A 3 × 3 crossover experimental design with 24 beagles (equal number of male and female dogs) randomly divided into six groups was conducted. Beagle dogs in the six groups received three doses of ET-26-HCl: 1.045 mg kg^−1, 2.090 mg kg^−1 and 4.180 mg kg^−1 as low (L), medium (M) and high (H) dose. Blood samples (2 ml) were collected from the elbow vein in 4 ml heparinized tubes before dosing, and at 1, 3, 5, 10, 20, 30, 120 and 180 min post-dosing. All blood samples were centrifuged at 8000 r.p.m. for 10 min and plasma collected and stored at −80°C until analysis.
All calculations were performed on Microsoft Excel 2016 (Microsoft Co., USA). The Drug and Statistics 3.2.7 (DAS 3.2.7) software package (Mathematical Pharmacology Professional Committee of China, China) was used to acquire the main pharmacokinetic parameters of ET-26-HCl. All data were shown as mean ± standard deviation (s.d.). Statistical significances were calculated by one-way analysis of variance (ANOVA).

[5] = Excretion (urine, faeces, bile) in Sprague Dawley rats; type: in vivo
Procedure: as §2
SD rats (4 male and 4 female) received 4.2 mg kg^−1 of ET-26-HCl intravenously and were housed in metabolic cages. Urine and faeces from the treated rats were collected between 0–6, 6–12, 12–24, 24–30, 30–36 and 36–48 h post-dosing. Urine volume and faeces weight were measured and recorded.
Bile fistulas of SD rats (four male and four female) were cannulated with polyethylene tube (Instech Laboratories, Inc., USA) and bile was collected at the following time-points: 0–3, 3–6, 6–9, 9–12 and 12–24 h post-dosing. The volume of the collected bile was measured and stored at −80°C until analysis.

[6] = measured concentration 654 ng ml^−1
[7] = measured concentration 2.62 × 10^3 ng ml^−1, read-out: protein binding (converted)
[8] = measured concentration 5.23 × 10^3 ng ml^−1, read-out: protein binding (converted)
[9] = overall over the three concentrations, read-out: plasma protein binding rate (converted)
[10] = i.v. ET-26-HCl 4.2 mg kg^−1, collected to 48 h

COCCOC(=O)c1cncn1[C@H](C)c1ccccc1.Cl [ET-26-HCl, (R)-2-methoxyethyl1-(1-phenylethyl)-1H-imidazole-5-carboxylate hydrochloride]
fraction unbound at 9 h, 654 ng ml^−1 [1, 6]: 0.181 | fraction unbound at 9 h [1, 7]: 0.15 | fraction unbound at 9 h [1, 8]: 0.178 | fraction unbound at 9 h [1, 9]: 0.17 | fraction unbound at 9 h ([2]; beagle dog plasma, overall over the three concentrations, read-out: plasma protein binding rate (converted)): 0.34 | fraction unbound at 9 h, 654 ng ml^−1 ([2]; dog plasma, measured concentration 654 ng ml^−1): 0.345 | fraction unbound at 9 h ([2]; dog plasma, measured concentration 2.62 × 10^3 ng ml^−1, read-out: protein binding (converted)): 0.369 | fraction unbound at 9 h ([2]; dog plasma, measured concentration 5.23 × 10^3 ng ml^−1, read-out: protein binding (converted)): 0.306 | fraction unbound at 9 h, 654 ng ml^−1 [3, 6]: 0.387 | fraction unbound at 9 h [3, 7]: 0.375 ± 0.0269 | fraction unbound at 9 h [3, 8]: 0.357 | fraction unbound at 9 h [3, 9]: 0.373 | λ ([4]; 1.045 mg kg^−1): 0.78 ± 0.06 1 h^−1 | λ ([4]; 2.09 mg kg^−1): 0.54 ± 0.06 1 h^−1 | λ ([4]; 4.18 mg kg^−1): 0.36 ± 0.06 1 h^−1 | Vd ([4]; 1.045 mg/kg, 1.045 mg kg^−1): 2.54 ± 0.29 L/kg | half-life ([4]; 1.045 mg/kg, 1.045 mg kg^−1): 55.2 ± 4.8 min | Vd ([4]; 2.09 mg/kg, 2.09 mg kg^−1): ~4 L/kg | half-life ([4]; 2.09 mg/kg, 2.09 mg kg^−1): ~60 min | Vd ([4]; 4.18 mg/kg, 4.18 mg kg^−1): 4.63 ± 0.67 L/kg | half-life ([4]; 4.18 mg/kg, 4.18 mg kg^−1): 130 ± 30 min | AUC0-t ([4]; 1.045 mg kg^−1): 30100 ng·h/mL | Cmax ([4]; 1.045 mg kg^−1): 1480 ± 140 ng/mL | clearance ([4]; 1.045 mg kg^−1): 32 mL/min/kg | AUC0-t ([4]; 2.09 mg kg^−1): 62700 ng·h/mL | Cmax ([4]; 2.09 mg kg^−1): 2850 ± 220 ng/mL | clearance ([4]; 2.09 mg kg^−1): 30 mL/min/kg | AUC0-t ([4]; 4.18 mg kg^−1): 130000 ng·h/mL | Cmax ([4]; 4.18 mg kg^−1): 6230 ± 240 ng/mL | clearance ([4]; 4.18 mg kg^−1): 25 mL/min/kg | accumulative excretion through bile ([5]; i.v. ET-26-HCl 4.2 mg kg^−1, bile collected to 24 h): 0.619% | accumulative excretion through faeces [5, 10]: 0.076% | accumulative excretion through urine [5, 10]: 11.97%
